Experimental data: paper PMC4174996 (Journal of Medicinal Chemistry, 2014)

Assay: Serum stability test
Format: in vitro ADME
Details: human, diluted human serum (25%)

Structure (SMILES): CC[C@H](C)[C@H](NC(=O)[C@@H](NC(=O)[C@@H]1CCCN1C(=O)[C@H](Cc1c[nH]cn1)NC(=O)[C@@H]1CCCN1C(=O)CN)C(C)C)C(=O)N[C@H](C(=O)N[C@H](C(=O)N[C@H](C(=O)NCC(=O)N1CCC[C@H]1C(=O)N[C@@H](Cc1c[nH]cn1)C(=O)N[C@@H](CCC(=O)O)C(=O)N[C@@H](CCC(=O)O)C(N)=O)[C@@H](C)O)[C@@H](C)CC)C(C)C [VIVIT]
- half-life at 50 µM: ~1 h
